Test results taken from patent US20240360166A1, “SALTS AND SOLID FORMS OF A COMPOUND HAVING GLP-1 AGONIST ACTIVITY” (Gasherbrum Bio, Inc., priority 2022, published 2024).
“Also recorded” adds a separate entry of the source.

Legend:
[1] = Hygroscopicity, DVS evaluation of free acid Form A and re-prepared salts (Table 5-7); format: physicochemical; conditions: for Form change after DVS: XRPD after DVS, * converted to a potential isomorphic hydrate by XRPD
Experimental: XRPD characterization was performed for the samples after DVS test.
DVS was measured via a SMS (Surface Measurement Systems) DVS Intrinsic. The relative humidity at 25° C. were calibrated against deliquescence point of LiCl, Mg(NO3)2 and KCl.

[2] = Solid stability evaluation of free acid Form A, Na salt Form A and L-arginine salt Form A, 2 weeks (Table 5-5); format: physicochemical; conditions: for Form change: XRPD
[3] = Kinetic solubility in water, pH buffers and bio-relevant media at 37° C. (Table 5-6); format: physicochemical; conditions: for pH: pH of solubility sample; for XRPD: residual solids
Experimental: Around 10 mg material was weighed into 5 mL water, buffer solution, SGF, FaSSIF or FeSSIF^1 followed by rolling at 25 rpm at 37° C. for 0.5 and 1 h. At each time point, around 0.8 mL suspension was sampled out for centrifugation and filtration. Solids were tested by XRPD.

[4] = Dog pharmacokinetic study, Free Acid Form A, sodium salt Form A, L-arginine salt Form A in oral HPMC capsule (Table 8-5); format: in vivo; conditions: 2 mg/kg, male Beagle dogs
Experimental: The objective of this study was to characterize the pharmacokinetics (PK) of Compound I in male Beagle dogs after oral (PO) or IV administration. […] The dose was administered orally by gavage to dogs. […] The plasma concentration of Compound I was determined by liquid chromatography with mass spectrometric detection (LC-MS/MS).

[5] = 25° C./92.5% RH, open container, 2 weeks
[6] = 40° C./75% RH, open container, 2 weeks
[7] = 60° C., tight container, 2 weeks
[8] = 50 mM acetate buffer (4.5), 0.5 h, 37° C.
[9] = alkaline borate buffer (8), 0.5 h, 37° C.
[10] = alkaline borate buffer (8), 1.0 h, 37° C.

Q: With “3-((1S,2S)-1-(2-((S)-3-(3-(4-(diethylphosphoryl)-3-(methylamino)phenyl)-2-oxo-2,3-dihydro-1H-imidazol-1-yl)-2-(4-fluoro-3,5-dimethylphenyl)-4-methyl-4,5,6,7-tetrahydro-2H-pyrazolo[4,3-c]pyridine-5-carbonyl)-5-(tetrahydro-2H-pyran-4-yl)-1H-indol-1-yl)-2-methylcyclopropyl)-1,2,4-oxadiazol-5(4H)-one sodium salt Form A [Compound I sodium salt Form A]” as the substance, how does the “Water uptake (@ 25° C./40-95% RH)” value ([1]; DVS, 25° C., 40-95% RH) read?
A: 10.4%

Q: What about the “Form change after DVS” value ([1]; listed as Compound I Na salt Form A) of the same substance?
A: converted to a new form; also recorded: form change was observed

Q: What about the “Form change after DVS” value ([1]; listed as Na salt Form A) of the same substance?
A: Yes*

Q: And the “Chemical and physical stability” value ([2]; 25° C./92.5% RH open, 40° C./75% RH open, 60° C. tight container, over 2 weeks, listed as Na salt Form A)?
A: chemically stable in these conditions but physically unstable at 25° C./92.5% RH and 40° C./75% RH

Q: What about the “Color Change” value [2, 5] of the same substance?
A: No

Q: What about the “HPLC purity (%)” value [2, 5] of the same substance?
A: 99.1%

Q: What about the “HPLC purity/initial (%)” value [2, 5] of the same substance?
A: >100%

Q: What about the Form change ([2]; 25° C./92.5% RH, open container, 2 weeks, * Likely isomorphic hydrate) of the same substance?
A: Yes*

Q: And the “Color Change” value [2, 6]?
A: No

Q: And the “HPLC purity (%)” value [2, 6]?
A: 99.1%

Q: What about the “HPLC purity/initial (%)” value [2, 6] of the same substance?
A: >100%

Q: What about the Form change ([2]; 40° C./75% RH, open container, 2 weeks, * Likely isomorphic hydrate) of the same substance?
A: Yes*

Q: What about the “Color Change” value [2, 7] of the same substance?
A: No

Q: What about the “HPLC purity (%)” value [2, 7] of the same substance?
A: 99.1%

Q: And the “HPLC purity/initial (%)” value [2, 7]?
A: >100%

Q: And the Form change [2, 7]?
A: No

Q: What about the “HPLC purity (%)” value ([2]; Initial) of the same substance?
A: 99.0%

Q: What about the Solubility ([3]; 50 mM acetate buffer (4.5), 0.5 h, 37° C., LOQ = 0.500 μg/mL) of the same substance?
A: <LOQ

Q: And the pH [3, 8]?
A: (4.60)

Q: And the XRPD [3, 8]?
A: AF^2

Q: What about the Solubility ([3]; 50 mM acetate buffer (4.5), 1.0 h, 37° C., LOQ = 0.500 μg/mL) of the same substance?
A: <LOQ

Q: And the pH ([3]; 50 mM acetate buffer (4.5), 1.0 h, 37° C.)?
A: (4.55)

Q: What about the Solubility ([3]; 0.1N HCl (1.2), 0.5 h, 37° C., LOQ = 0.500 μg/mL) of the same substance?
A: <LOQ

Q: What about the pH ([3]; 0.1N HCl (1.2), 0.5 h, 37° C.) of the same substance?
A: (0.95)

Q: And the Solubility ([3]; 0.1N HCl (1.2), 1.0 h, 37° C., LOQ = 0.500 μg/mL)?
A: <LOQ

Q: What about the pH ([3]; 0.1N HCl (1.2), 1.0 h, 37° C.) of the same substance?
A: (1.06)

Q: And the XRPD ([3]; 0.1N HCl (1.2), 1.0 h, 37° C.)?
A: AF^1

Q: What about the “Kinetic solubility, comparison between forms” value ([3]; 37° C., 0.5 and 1 h) of the same substance?
A: higher than that of L-arginine salt Form A

Q: And the Solubility ([3]; FaSSIF (6.5), 0.5 h, 37° C.)?
A: 9.1 µg/mL

Q: What about the pH ([3]; FaSSIF (6.5), 0.5 h, 37° C.) of the same substance?
A: (6.53)

Q: And the XRPD ([3]; FaSSIF (6.5), 0.5 h, 37° C.)?
A: AF^3

Q: What about the Solubility ([3]; FaSSIF (6.5), 1.0 h, 37° C.) of the same substance?
A: 10.2 µg/mL

Q: And the pH ([3]; FaSSIF (6.5), 1.0 h, 37° C.)?
A: (6.60)

Q: What about the XRPD ([3]; FaSSIF (6.5), 1.0 h, 37° C.) of the same substance?
A: AF^3

Q: What about the Solubility ([3]; FeSSIF (5.0), 0.5 h, 37° C.) of the same substance?
A: 42.7 µg/mL

Q: What about the pH ([3]; FeSSIF (5.0), 0.5 h, 37° C.) of the same substance?
A: (4.98)

Q: And the Solubility ([3]; FeSSIF (5.0), 1.0 h, 37° C.)?
A: 40.9 µg/mL

Q: What about the pH ([3]; FeSSIF (5.0), 1.0 h, 37° C.) of the same substance?
A: (5.06)

Q: And the XRPD ([3]; FeSSIF (5.0), 1.0 h, 37° C.)?
A: AF^1

Q: What about the Solubility ([3]; H2O, 0.5 h, 37° C.) of the same substance?
A: 1907.0 µg/mL

Q: And the pH ([3]; H2O, 0.5 h, 37° C.)?
A: (8.50)

Q: What about the Solubility ([3]; H2O, 1.0 h, 37° C.) of the same substance?
A: 1742.2 µg/mL

Q: What about the pH ([3]; H2O, 1.0 h, 37° C.) of the same substance?
A: (8.34)

Q: And the Solubility ([3]; SGF (2.0), 0.5 h, 37° C.)?
A: 14.2 µg/mL

Q: And the pH ([3]; SGF (2.0), 0.5 h, 37° C.)?
A: (2.13)

Q: And the XRPD ([3]; SGF (2.0), 0.5 h, 37° C.)?
A: AF^1

Q: What about the Solubility ([3]; SGF (2.0), 1.0 h, 37° C.) of the same substance?
A: 15.8 µg/mL

Q: And the pH ([3]; SGF (2.0), 1.0 h, 37° C.)?
A: (2.17)

Q: What about the XRPD ([3]; SGF (2.0), 1.0 h, 37° C.) of the same substance?
A: AF^1

Q: And the Solubility [3, 9]?
A: 179.0 µg/mL

Q: What about the pH [3, 9] of the same substance?
A: (7.99)

Q: And the XRPD [3, 9]?
A: AF^3

Q: What about the Solubility [3, 10] of the same substance?
A: 164.2 µg/mL

Q: What about the pH [3, 10] of the same substance?
A: (7.99)

Q: What about the XRPD [3, 10] of the same substance?
A: AF^3

Q: What about the “Disproportionation after solubility study (XRPD)” value ([3]; solids after kinetic solubility test) of the same substance?
A: disproportionation was observed

Q: What about the “Tmax (median)” value [4] of the same substance?
A: 2.0 h

Q: What about the “Tmax (range)” value [4] of the same substance?
A: [1.0-2.0] h

Q: What about the Cmax ([4]; mean) of the same substance?
A: 64.1 ng/mL

Q: And the AUClast ([4]; mean, t = 8 h)?
A: 198 h*ng/m:
